Assay results reported in ChEMBL document CHEMBL1150188, “Chemistry of Sponges, X. New Sesquiterpenes from a Marine Sponge of the Genus Eurypon” (J Nat Prod, 1990).
The source made the active and inactive calls. No cut-off for these calls is given here.

Tested on: Escherichia coli
Assay: Antimicrobial activity against Escherichia coli at 100 ug/disk by standard disk assay
Format: functional, organism-based

**Q.** Which Activity does the source give for `CC1(C)C[C@@H]2C3=C[C@@H](O)C[C@](C)(CC[C@@H]21)C3` here?
**A.** The Activity was “Active”.
